Measurements: patent US20250297225A1, “MULTIPLE HEART TISSUE CULTURE FUSION” (IMBA - INSTITUT FÜR MOLEKULARE BIOTECHNOLOGIE GMBH, priority 2022, published 2025)
Entries after “also recorded” stand apart in the source; their conditions may differ. One block for each compound: values may come before it.

Experiments:
[1] = tested on: cardioids (LV, RV, OFT, Atria, AVC); details: for dosage at which severe compartment-specific and stage-specific effects were observed: human
[2] = tested on: cardioids (LV, RV, OFT, Atria, AVC); assay: Real-time qPCR of cardioids treated with teratogens; format: cell-based, human
Method: The isolated RNA was reverse transcribed to cDNA using the Reverse Transcription Kit (Invitrogen, #18080044) with a C100 Touch Bio-Rad Thermal Cycler. Quantitative PCR was performed using the GoTaq qPCR master mix 2× (Promega, #A6001) with a Bio-Rad CFX384 Real-Time thermal cycler. Values of gene expression of each sample were obtained in triplicates. The Log-fold change of the sample from PBGD as a housekeeping gene and a pluripotent stem cell sample for normalization were used.

[3] = tested on: FHF and aSHF progenitors / cardioids; assay: Lineage specification of cardiac progenitors/cardioids by retinoic acid dosage; format: cell-based, human; details: LV (FHF progenitor), Cardiac Mesoderm Patterning Media One
Method: These were termed 3D protocols.
The retinoic acid concentration should be low as a higher concentration (>100 nM) leads to FHF-derived atria, not ventricular fate.
The retinoic acid addition here helps drive the RV identity.

[4] = cited from earlier work

Structure (SMILES): COc1cc(C)c(/C=C/C(C)=C/C=C/C(C)=C/C(=O)O)c(C)c1C [Acitretin]
- CM differentiation and morphology of treated cardioids [1]: Inefficient CM differentiation and morphological changes
- defects in OFT, atrial, and AVC cardioids [1]: specification, patterning and morphogenesis defects
- dosage at which severe compartment-specific and stage-specific effects were observed [1]: 5 nM

- effect on all the other cardioid subtypes [1]: unaffected
Structure (SMILES): CC1=C(/C=C/C(C)=C/C=C/C(C)=C/CO)C(C)(C)CCC1 [All trans Retinol]
- gene expression in OFT cardioids (OFT, ventricular, chamber, atrial genes) ([2]; OFT cardioids): downregulation of OFT and upregulation of ventricular genes
- morphological effect on OFT cardioids [1]: severe morphological effect on OFT cardioids
- size difference between treated and untreated cardioids [1]: no size difference between treated and untreated cardioids within one protocol the except LV cardioids treated with 50 nM

Structure (SMILES): CC(=O)Oc1ccccc1C(=O)O [Aspirin]
- gene expression differences vs control cardioids ([2]; high 30 μM dosage): no obvious gene expression differences; also recorded: neither observed morphological nor significant gene expression differences
- size and TNNI-GFP expression compared to untreated cardioids [1]: no size and TNNI-GFP expression differences

- dosage at which severe compartment-specific and stage-specific effects were observed [1]: 1 nM
Structure (SMILES): CC1=C(/C=C/C(C)=C/C=C/C(C)=C\C(=O)O)C(C)(C)CCC1 [Isotretinoin]
- defects in OFT, atrial, and AVC cardioids [1]: specification, patterning and morphogenesis defects

Structure (SMILES): CC1=C(/C=C/C(C)=C/C=C/C(C)=C/C(=O)O)C(C)(C)CCC1 [retinoic acid]
- retinoic acid concentration that leads to FHF-derived atria, not ventricular fate [3]: > 100 nM

Structure (SMILES): O=C1CCC(N2C(=O)c3ccccc3C2=O)C(=O)N1 (stereo not shown) [thalidomide]
- expression of chamber-specific marker NPPA ([2]; d9.5 cardioids): downregulation of the chamber-specific marker NPPA for all lineages except for the RV and OFT
- expression of compartment identity markers (NR2F2, IRX1/4) ([2]; d9.5 cardioids): dosage-specific misregulation of compartment identity markers (NR2F2, IRX1/4)
- expression of lineage specific genes ([2]; d9.5 cardioids, fold change normalized to housekeeping gene and pluripotency): mis-regulation of lineage specific genes
- human therapeutic plasma concentrations [4]: ~2.4 µM
